Data: PubChem BioAssay AID1919015 (Molecular Pharmacology Branch, DTP, NCI, 2023)

Tested on: OVCAR-5 complex spheroids with HUVEC/MSC, viability, % test/control
Experiment: Anticancer human tumor OVCAR-5 cell line growth inhibition [AhR];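 further: spheroids exposed to compounds for 7 days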;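 on viability, T/C: 100% = DMSO vehicle control wells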
Settings: for IC50: curve of first compound; for viability, T/C: stronger effect = lower value
In short: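 Agents were dosed in half-log steps down from roughly clinical Cmax, or from 10 microM where Cmax was unknown, alone and with AhR antagonists. Read-out: percent test/control growth of tumor spheroids containing HUVEC and MSC stromal cells.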

[1] = second compound 0.1 µM, first compound 0.00949 µM
[2] = second compound 0.1 µM, first compound 0.03 µM
[3] = second compound 0.1 µM, first compound 0.0949 µM
[4] = second compound 0.1 µM, first compound 0.3 µM
[5] = second compound 0.316 µM, first compound 0.00949 µM
[6] = second compound 0.316 µM, first compound 0.03 µM
[7] = second compound 0.316 µM, first compound 0.0949 µM
[8] = second compound 0.316 µM, first compound 0.3 µM
[9] = second compound 1 µM, first compound 0.00949 µM
[10] = second compound 1 µM, first compound 0.03 µM
[11] = second compound 1 µM, first compound 0.0949 µM
[12] = second compound 1 µM, first compound 0.3 µM
[13] = second compound 3.16 µM, first compound 0.00949 µM
[14] = second compound 3.16 µM, first compound 0.03 µM
[15] = second compound 3.16 µM, first compound 0.0949 µM
[16] = second compound 3.16 µM, first compound 0.3 µM
[17] = second compound 10 µM, first compound 0.00949 µM
[18] = second compound 10 µM, first compound 0.03 µM
[19] = second compound 10 µM, first compound 0.0949 µM
[20] = second compound 10 µM, first compound 0.3 µM

Structure (SMILES) | IC50 (second compound 0.1 µM) | IC50 (second compound 0.316 µM) | IC50 (second compound 1 µM) | IC50 (second compound 3.16 µM) | IC50 (second compound 10 µM) | viability, T/C [1] | viability, T/C [2] | viability, T/C [3] | viability, T/C [4] | viability, T/C [5] | viability, T/C [6] | viability, T/C [7] | viability, T/C [8] | viability, T/C [9] | viability, T/C [10] | viability, T/C [11] | viability, T/C [12] | viability, T/C [13] | viability, T/C [14] | viability, T/C [15] | other results
CCN(c1cc(-c2ccc(CN3CCOCC3)cc2)cc(C(=O)NCc2c(C)cc(C)[nH]c2=O)c1C)C1CCOCC1 + CC(CO)NC(=O)c1cc(-c2ccc(Cl)cc2)nn(-c2cnn(C)c2)c1=O | > 3000 nM | > 3000 nM | > 3000 nM | > 3000 nM | > 3000 nM | 114% | 111% | 111% | 110% | 113% | 117% | 114% | 107% | 116% | 118% | 119% | 115% | 108% | 113% | 107% | viability, T/C (second compound 0.1 µM, first compound 0.949 µM): 106%; viability, T/C (second compound 0.1 µM, first compound 3 µM): 109%; viability, T/C (second compound 0.316 µM, first compound 0.949 µM): 111%; viability, T/C (second compound 0.316 µM, first compound 3 µM): 110%; viability, T/C (second compound 1 µM, first compound 0.949 µM): 113%; viability, T/C (second compound 1 µM, first compound 3 µM): 117%; viability, T/C [16]: 98.8%; viability, T/C (second compound 3.16 µM, first compound 0.949 µM): 91.8%; viability, T/C (second compound 3.16 µM, first compound 3 µM): 97.8%; viability, T/C [17]: 102%; viability, T/C [18]: 106%; viability, T/C [19]: 99%; viability, T/C [20]: 97.7%; viability, T/C (second compound 10 µM, first compound 0.949 µM): 98.1%; viability, T/C (second compound 10 µM, first compound 3 µM): 99.9%
Nc1ncn(C2CC(O)C(CO)S2)c(=O)n1 (stereo not given) + CC(CO)NC(=O)c1cc(-c2ccc(Cl)cc2)nn(-c2cnn(C)c2)c1=O | > 300 nM | > 300 nM | > 300 nM | > 300 nM | > 300 nM | 106% | 110% | 103% | 85.3% | 109% | 105% | 101% | 84.6% | 113% | 109% | 106% | 91.9% | 102% | 104% | 93.3% | viability, T/C (second compound 0.1 µM, first compound 0.000949 µM): 104%; viability, T/C (second compound 0.1 µM, first compound 0.003 µM): 110%; viability, T/C (second compound 0.316 µM, first compound 0.000949 µM): 103%; viability, T/C (second compound 0.316 µM, first compound 0.003 µM): 109%; viability, T/C (second compound 1 µM, first compound 0.000949 µM): 109%; viability, T/C (second compound 1 µM, first compound 0.003 µM): 112%; viability, T/C (second compound 3.16 µM, first compound 0.000949 µM): 101%; viability, T/C (second compound 3.16 µM, first compound 0.003 µM): 104%; viability, T/C [16]: 83.5%; viability, T/C (second compound 10 µM, first compound 0.000949 µM): 99.7%; viability, T/C (second compound 10 µM, first compound 0.003 µM): 101%; viability, T/C [17]: 98.9%; viability, T/C [18]: 98.4%; viability, T/C [19]: 93%; viability, T/C [20]: 86.2%
